Laboratory results: patent publication US20210178012A1, “FOAM WOUND DRESSING COMPRISING AN ANTISEPTIC” (Coloplast A/S, priority 2018, published 2021)

What was measured:
[1] = Previous zone of inhibition studies (not shown); format: cell-based; conditions: pure octenidine impregnated into foam without surfactants
[2] = Octenidine in foam, no surfactant: extraction from impregnated hydrophilic polyurethane foam discs; format: physicochemical; conditions: plain foam, 24 h extraction
Protocol: Discs of hydrophilic polyurethane foam were impregnated by applying a known volume of octenidine-containing solution to the surface of the foam and letting it soak into the foam matrix in a liquid:foam ratio which allowed the foam to be saturated with liquid. Afterwards, the impregnated foam was dried at RT overnight. The dried foam disc was immersed in the extraction media for 24 h and the extracted octenidine concentration was determined by UV at 285 nm

[3] = 0.1 w % OCT in impregnation solution
[4] = 0.5 w % OCT in impregnation solution
[5] = 1.0 w % OCT in impregnation solution

Compound: CCCCCCCCN=c1ccn(CCCCCCCCCCn2ccc(=NCCCCCCCC)cc2)cc1 [Octenidine, octenidine]
- zones in a zone of inhibition study [1]: small or no zones
- Release % phosphate buffer (23 mM) [2, 3]: 7%
- Release % water [2, 3]: 5%
- Release % phosphate buffer (23 mM) [2, 4]: 13%
- Release % water [2, 4]: 1.5%
- Release % phosphate buffer (23 mM) [2, 5]: 20%
- Release % water [2, 5]: 1.5%
